From ChEMBL document CHEMBL3045300, “Synthesis of photolabile lac-acetogenin for photoaffinity labeling of mitochondrial complex I” (J Pestic Sci, 2006)

Experiments:
[1] = Inhibition of Bos taurus (bovine) heart submitochondrial NADH complex 1 by NADH oxidase assay
Bos taurus = species on record: Bos taurus; assay: Inhibition of Bos taurus (bovine) heart submitochondrial NADH complex 1 at 12 nM by NADH oxidase assay

Structure (SMILES): O=C1N[C@H]2[C@H](CS[C@H]2CCCCC(=O)OCCCCCCC[C@@H](O)[C@H]2CC[C@H]([C@H]3CC[C@H]([C@H](O)CCCCCCOc4ccc(C5(C(F)(F)F)N=N5)cc4)O3)O2)N1
- IC50 [1]: 3.9 nM
- inhibition (Bos taurus): > 95%

Structure (SMILES): CCCCCCCCCC[C@@H](O)[C@H]1CC[C@H]([C@H]2CC[C@H]([C@H](O)CCCCCCCCCC)O2)O1 [dleta-lac-Acetogenin]
- IC50 [1]: 1.8 nM
